Article PMC9103184, “Kunitz-Type Peptides from Sea Anemones Protect Neuronal Cells against Parkinson’s Disease Inductors via Inhibition of ROS Production and ATP-Induced P2X7 Receptor Activation” (International Journal of Molecular Sciences, 2022)
Bridge positions count the residues as written; N and C are the ends. Ends that are not written are not given here.

How the values were obtained:
[1] = system: TRPV1; conditions: cited from earlier work
[2] = system: 6-OHDA-treated cells; conditions: 6-OHDA model; cited from earlier work
[3] = molecular target: T1, trypsin (Bos taurus, UniProt P00760); assay: Residual trypsin-inhibitory activity after heating; format: biochemical; conditions: heating in the range from 60 °C to 100 °C; 7 μM peptide, 1.2 mM BAPNA, 37 °C, three parallel experiments
T1 sequence (P00760 24-246): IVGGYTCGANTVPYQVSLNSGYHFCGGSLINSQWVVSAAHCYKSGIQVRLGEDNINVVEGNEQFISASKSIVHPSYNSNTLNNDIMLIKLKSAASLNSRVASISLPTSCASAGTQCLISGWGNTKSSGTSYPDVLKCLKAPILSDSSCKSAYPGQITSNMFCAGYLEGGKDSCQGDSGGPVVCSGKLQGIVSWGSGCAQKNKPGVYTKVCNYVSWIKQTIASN
Description: Figure 6 The effects of temperature on the trypsin-inhibitory activity levels of peptides. Peptides were incubated at the temperatures for 30 min and their residual activities were measured.
The temperature influence on the activity levels of peptides was assessed by measuring their residual inhibitory activity levels. After preincubation at temperatures ranging from 25 to 100 °C for 25 min, the peptide solutions were added to trypsin solution and the reaction mixtures were incubated for 10 min at 37 °C, then 1.2 mM BAPNA was added, followed by incubation at 37 °C for 30 min. The final concentration of the peptides was 7 μM. Substrate hydrolysis was measured at 410 nm. The residual activity was calculated based on the results of three parallel experiments according to the following equation [60]:% = (1 − residual enzyme activity/enzyme activity without inhibitor) × 100

[4] = molecular target: T1, trypsin; assay: Trypsin inhibition (BAPNA substrate, Dixon's method); format: biochemical; conditions: BAPNA 0.6 and 1.2 mM, trypsin 208 nM, peptide 0–20 μM, three parallel experiments, read-out: trypsin inhibitory constant (Ki)
Description: The trypsin-inhibitory activity of HCIQ1c9 was estimated according to the standard procedure using N-α-benzoyl-D,L-arginine p-nitroanilide (BAPNA) (Sigma-Aldrich, St. Louis, MO, USA) as a substrate. The trypsin inhibition constant was determined using Dyxon’s method using substrate concentrations of 0.6 and 1.2 mM. The trypsin concentration was 208 nM. The range of peptide concentrations was 0–20 μM. The constant was calculated based on the results of three parallel experiments. Computational error limits were in the range of 0.1–0.3%.

Row | Substance | activity on TRPV1 [1] | decrease in ROS production below the control [2] | decrease in trypsin-inhibitory activity after heating [3] | Ki [4]
1 | HCRG21: Kunitz-type peptide from H. crispa, P0DL86; blocker of TRPV1 (RGICSEPKVVGPCTAYFRRFYFDSETGKCTPFIYGGCEGNGNNFETLRACRAICRA; UniProt P0DL86 1-56, looked up) | blocker of TRPV1 | up to 87% |  | 
2 | IQGNICSEPKKVGRCRRSFPRFYFDSETGKCTPFIYGGCGGNGNNFETLHACRAICRA (disulfide 6-56, 15-39, 31-52) [HCIQ1c9] |  |  | 30–70% | 630 nM
